Patent EP2308883A1, “New derivatives of thieno[2,3-b]pyridine and 5,6,7,8 tetrahydrothieno[2,3 b]quinoline in particular useful in the treatment of malaria” (priority 2009, dated 2011)
pIC50: −log10 of the molar value.

Tests used:
[1] = target: Mammalian GSK-3 (GSK-3α/β); assay: Kinase assay with native porcine GSK3 purified from porcine brain, GS-1 peptide and [γ-33P] ATP; assay type: biochemical; settings: for anti-mammalian GSK-3 IC50 values: result in words; for pIC50: -(10) taken as no inhibition at 10, read-out: IC50 Mammalian GSK-3
Method: Porcine GSK3 (GSK-3α/β) was purified from porcine brain by affinity chromatography on immobilized axin according to the protocol described in Primot et al (Protein Expression and Purification 20, 394-404, 2000).
(§1) Both porcine GSK3 and PfGSK3 were assayed with 40 µM GS-1 peptide, a specific GSK-3 substrate, ([…]pEDEEE, synthesized by the Peptide Synthesis Unit, Institute of Biomolecular Sciences, University of Southampton, U.K.), in buffer A (25 mM Tris-HCl pH 7.5, 10 mM MgC12, 1 mM EGTA, 1 mM DTT, 50 µg heparin/ml, 0.5 mg BSA/ml) in the presence of 15 µM [γ-^33P] ATP (3000 Ci/mmol; 1 mCi/ml) in a final volume of 30 µl. After 30 min. incubation at 30°C, 25 µl aliquots of supernatant were spotted onto 2.5 x 3 cm pieces of Whatman P81 phosphocellulose paper, and, 20 sec. later, the filters were washed five times (for at least 5 min. each time) in 1 % phosphoric acid. The wet filters were counted in the presence of 1 ml ACS (Amersham) scintillation fluid. The kinase activity was expressed in pmoles phosphate incorporated in GS-1 or in percentage of the maximal activity.

[2] = target: T1, PfGSK-3 (Plasmodium falciparum, UniProt O77344); assay: Kinase assay with recombinant (His)6-tagged PfGSK3, GS-1 peptide and [γ-33P] ATP; assay type: biochemical; settings: for anti-PfGSK-3 IC50 values: result in words; for pIC50: unit only in the introducing sentence b99, not in the table, read-out: IC50 PfGSK-3
T1 construct: His6; made in house; host or cells: Escherichia coli TOP 10
T1 sequence (O77344 1-440): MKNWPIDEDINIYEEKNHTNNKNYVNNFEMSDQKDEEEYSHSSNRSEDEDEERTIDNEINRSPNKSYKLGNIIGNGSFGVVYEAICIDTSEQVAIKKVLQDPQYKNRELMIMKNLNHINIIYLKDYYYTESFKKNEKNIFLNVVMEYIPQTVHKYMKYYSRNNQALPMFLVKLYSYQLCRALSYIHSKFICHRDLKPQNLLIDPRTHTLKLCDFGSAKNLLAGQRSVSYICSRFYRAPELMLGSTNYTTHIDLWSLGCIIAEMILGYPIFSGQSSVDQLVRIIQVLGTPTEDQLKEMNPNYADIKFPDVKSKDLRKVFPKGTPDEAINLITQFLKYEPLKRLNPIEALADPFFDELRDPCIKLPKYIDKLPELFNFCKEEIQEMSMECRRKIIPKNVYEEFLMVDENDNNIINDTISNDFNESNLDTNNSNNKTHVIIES
Method: Escherichia coli strain (TOP 10) containing a plasmid encoding PfGSK3 with six histidines (pBAD-Thio-TOPO, Invitrogen) were cultured into 500 ml of LB medium containing 100 µg/ml ampicillin, at 37°C, under shaking (250 rpm) until OD600 of 0.5 was reached. Expression was induced with 0.5 ml of 20% arabinose (0.02% final concentration). The culture was grown at 37°C with shaking for 4 hours. Cells were harvested by centrifugation at 9000 rpm for 10 min. The bacterial pellet was stored frozen at -80°C until further processing. For proteins extraction, pellet was resuspended in 10 ml of lysis buffer (50 mM NaH2PO4 pH 8.0, 300 mM NaCl, 10 mM imidazole) with the addition of protease inhibitors (complete EDTA-free, Roche) and lysozyme ([…] final). Cells were disrupted by sonication and the cell lysate was centrifuged at 24000 rpm for 30 min at 4°C. The recombinant PfGSK3 protein was purified by Immobilized Metal Affinity Chromatography according to a batch procedure on 1 ml of Nickel affinity resin (Ni-NTA agarose beads, Qiagen). Beads were washed four times with 10 ml of wash buffer (50 mM NaH2PO4 pH 8.0, 300 mM NaCl, 30 mM imidazole). Protein was eluted with one volume of elution buffer (50 mM NaH2PO4 pH 8.0, 300 mM NaCl, 250 mM imidazole, 10% glycerol).
as §1

In the case of COc1ccccc1-c1c(C#N)c(N)nc2sc(C(=O)c3cccc(Cl)c3)c(N)c12 [Compound 7, 3,6-diamino-2-(3-chlorobenzoyl)-4-(2-methoxyphenyl)thieno[2,3-b]pyridine-5-carbonitrile], the “anti-mammalian GSK-3 IC50 values” [1] was “do not demonstrate good” and the “anti-PfGSK-3 IC50 values” [2] was “particularly good”.
COc1ccc(C(=O)c2sc3nc(N)c(C#N)c(-c4ccccc4I)c3c2N)cc1 [Compound 11, 3,6-diamino-4-(2-iodophenyl)-2-(4-methoxybenzoyl)thieno[2,3-b]pyridine-5-carbonitrile] was tested, and the pIC50 [1] was less than 5.00, the “anti-mammalian GSK-3 IC50 values” [1] was “do not demonstrate good” and the “anti-PfGSK-3 IC50 values” [2] was “particularly good”. For the same compound, the pIC50 [2] was 5.77.
For Cc1ccc(C(=O)c2sc3nc(N)c(C#N)c(-c4ccccc4I)c3c2N)cc1 [Compound 12, 3,6-diamino-4-(2-iodophenyl)-2-(4-methylbenzoyl)thieno[2,3-b]pyridine-5-carbonitrile], the “anti-mammalian GSK-3 IC50 values” [1] was “do not demonstrate good” and the “anti-PfGSK-3 IC50 values” [2] was “particularly good”.
With N#Cc1c(N)nc2sc(C(=O)c3ccccc3)c(N)c2c1-c1ccccc1Br [Compound 18, 3,6-diamino-2-benzoyl-4-(2-bromophenyl)thieno[2,3-b]pyridine-5-carbonitrile] the “anti-mammalian GSK-3 IC50 values” [1] was “do not demonstrate good” and the “anti-PfGSK-3 IC50 values” [2] was “particularly good”.
With N#Cc1c(N)nc2sc(C(=O)c3ccc(Cl)c(Cl)c3)c(N)c2c1-c1ccccc1Br [Compound 21, 3,6-diamino-4-(2-bromophenyl)-2-(3,4-dichlorobenzoyl)thieno[2,3-b]pyridine-5-carbonitrile] the pIC50 [1] was less than 5.00, the “anti-mammalian GSK-3 IC50 values” [1] was “do not demonstrate good” and the “anti-PfGSK-3 IC50 values” [2] was “particularly good”. The pIC50 [2] was 5.42.
N#Cc1c(N)nc2sc(C(=O)c3ccc(Cl)c(Cl)c3)c(N)c2c1-c1ccccc1Cl [Compound 23, 3,6-diamino-4-(2-chlorophenyl)-2-(3,4-dichlorobenzoyl)thieno[2,3-b]pyridine-5-carbonitrile] was tested, and the “anti-mammalian GSK-3 IC50 values” [1] was “do not demonstrate good” and the “anti-PfGSK-3 IC50 values” [2] was “particularly good”.
COc1cccc(C(=O)c2sc3nc(N)c(C#N)c(-c4ccccc4Cl)c3c2N)c1 [Compound 24, 3,6-diamino-4-(2-chlorophenyl)-2-(3-methoxybenzoyl)thieno[2,3-b]pyridine-5-carbonitrile] was tested, and the “anti-mammalian GSK-3 IC50 values” [1] was “do not demonstrate good” and the “anti-PfGSK-3 IC50 values” [2] was “particularly good”.
N#Cc1c(N)nc2sc(C(=O)c3cccc(C(F)(F)F)c3)c(N)c2c1-c1ccccc1Cl [Compound 25, 3,6-diamino-4-(2-chlorophenyl)-2-[3-(trifluoromethyl)benzoyl]thieno[2,3-b]pyridine-5-carbonitrile] was tested, and the “anti-mammalian GSK-3 IC50 values” [1] was “do not demonstrate good” and the “anti-PfGSK-3 IC50 values” [2] was “particularly good”.
For N#Cc1c(N)nc2sc(C(=O)c3cccc(Br)c3)c(N)c2c1-c1ccccc1Cl [Compound 27, 3,6-diamino-2-(3-bromobenzoyl)-4-(2-chlorophenyl)thieno[2,3-b]pyridine-5-carbonitrile], the “anti-mammalian GSK-3 IC50 values” [1] was “do not demonstrate good” and the “anti-PfGSK-3 IC50 values” [2] was “particularly good”.
N#Cc1c(N)nc2sc(C(=O)c3cccc(Cl)c3)c(N)c2c1-c1c(Cl)cccc1Cl [Compound 30, 3,6-diamino-2-(3-chlorobenzoyl)-4-(2,6-dichlorophenyl)thieno[2,3-b]pyridine-5-carbonitrile] was tested, and the “anti-mammalian GSK-3 IC50 values” [1] was “do not demonstrate good” and the “anti-PfGSK-3 IC50 values” [2] was “particularly good”.
For Cc1ccccc1-c1c(C#N)c(N)nc2sc(C#N)c(N)c12 [Compound 40, 3,6-diamino-4-(2-methylphenyl)thieno[2,3-b]pyridine-2,5-dicarbonitrile], the pIC50 [1] was 5.70 and the pIC50 [2] was 6.29.
For N#Cc1sc2nc(N)c(C#N)c(-c3cccs3)c2c1N [Compound 41, 3,6-diamino-4-(2-thienyl)thieno[2,3-b]pyridine-2,5-dicarbonitrile], the pIC50 [1] was 5.64 and the pIC50 [2] was 6.74.
N#Cc1c(N)nc2sc3c(=S)[nH]cnc3c2c1-c1ccccc1Cl [Compound 47, 7-amino-9-(2-chlorophenyl)-4-thioxo-3,4-dihydropyrido[3',2':4,5]thieno[3,2-d]pyrimidine-8-carbonitrile] showed a pIC50 [1] of 7.22 and a pIC50 [2] of 6.89.
